Like-named read-outs stand apart in the source and are kept apart here.
Key:
[1] = target: T1, AChE from Electrophorus electricus (type VI-S) (Electrophorus electricus, UniProt O42275); assay: biochemical
T1 construct: purchased
Procedure: Acetylcholinesterase inhibitory activity was determined and modified from Ellman, as described elsewhere. […] The enzyme activity and the percentage inhibition were determined. […] All determinations were carried out at least three times and in triplicate wells.

[2] = target: T2, AChE-induced Aβ1–42 aggregation (Electrophorus electricus, UniProt O42275); assay: Inhibition of AChE-induced Aβ1–42 aggregation (thioflavin T assay); type: biochemical; details: for inhibitory effect on AChE-induced Aβ1–42 aggregation (in words): ThT-based fluorescence assay
T2 construct: purchased
T2 sequence (O42275 24-633): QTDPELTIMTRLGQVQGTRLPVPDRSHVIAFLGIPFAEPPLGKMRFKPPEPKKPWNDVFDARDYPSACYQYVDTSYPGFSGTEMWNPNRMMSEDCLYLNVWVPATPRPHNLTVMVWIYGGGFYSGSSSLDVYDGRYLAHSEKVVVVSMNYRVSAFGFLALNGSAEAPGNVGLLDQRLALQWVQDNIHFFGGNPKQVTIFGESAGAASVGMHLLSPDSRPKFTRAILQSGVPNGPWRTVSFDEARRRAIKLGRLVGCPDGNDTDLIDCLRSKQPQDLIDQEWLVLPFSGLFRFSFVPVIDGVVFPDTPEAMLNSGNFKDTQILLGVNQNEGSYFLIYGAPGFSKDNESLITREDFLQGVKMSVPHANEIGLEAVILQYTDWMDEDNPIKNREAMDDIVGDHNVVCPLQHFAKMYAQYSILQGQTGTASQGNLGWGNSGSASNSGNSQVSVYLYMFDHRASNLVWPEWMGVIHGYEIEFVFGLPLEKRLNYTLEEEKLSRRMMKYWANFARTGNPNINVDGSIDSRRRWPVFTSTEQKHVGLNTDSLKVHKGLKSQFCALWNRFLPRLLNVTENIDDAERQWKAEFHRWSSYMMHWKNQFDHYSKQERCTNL
Procedure: Inhibition of AChE-induced Aβ1–42 aggregation was modified and measured using a thioflavin T (ThT) binding assay, as described elsewhere. Briefly, Aβ1–42 was dissolved in 50 mM phosphate buffer (pH 8.0). […] The fluorescence intensities were recorded, and the percentage of inhibition on aggregation was calculated by using the following equation: (1 – IFi/IFc) * 100%, in which IFi and IFc were the fluorescence of the AChE-induced Aβ1–42 aggregation group in the presence and absence of the test compounds, respectively, after subtracting the fluorescence of self Aβ1–42 aggregation and the background fluorescence of 5 μM ThT in the blank buffers. […] All determinations were carried out at least three times and in triplicate wells. […]

Aβ1–42 = Aβ1–42 (Homo sapiens, UniProt P05067); assay: Inhibition of self-induced Aβ1–42 aggregation (thioflavin T assay); type: biochemical; details: ThT fluorescence, Aβ1–42, 48 h at 37 °C, mean ± SD; read-out: Self-Induced Aβ IC50
Aβ1–42, sequence (P05067 672-713 limits assumed): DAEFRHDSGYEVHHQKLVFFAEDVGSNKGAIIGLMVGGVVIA
Procedure: Inhibition of self-induced Aβ1–42 aggregation was assayed, as described elsewhere. […] After incubation, the samples were mixed with […] glycine/NaOH buffer (pH 8.5) containing 5 μM ThT. […] The fluorescence intensities were recorded, and the percentage of inhibition on aggregation was calculated by using the following equation: (1 − IFi/IFc) * 100% in which IFi and IFc were the fluorescence intensities obtained for Aβ1-42 aggregation group in the presence and absence of the test compounds, respectively, after subtracting the background fluorescence of 5 μM ThT in the blank buffers. […] The experiment was done in independent triplicates. […]

SH-SY5Y cells [3] = assay: Neuroprotection against Aβ1–42 toxicity (MTT); type: cell-based, Human; details: 0.1 to 10 µM with 25 µM Aβ1–42 for 24 h, compared to Aβ1–42-induced group
Procedure: (§1) Human neuroblastoma cells (SH-SY5Y) were cultured in Dulbecco’s Modified Eagle Medium (DMEM/Ha’s F12) containing 50 IU/mL penicillin, […] streptomycin, 2 mM L-glutamine, and 10% fetal bovine serum. Cells were maintained at 37 °C in a humidified incubator in an atmosphere of 5% CO2 For the assay, the SH-SY5Y cells, at a density of 5 × 10^5 cell/mL, were seeded in a 96-well plate and incubated for 48 h.
For neuroprotection against Aβ1–42 toxicity, the Aβ1–42 preparation was modified from. Briefly, lyophilized Aβ1–42 was reconstituted in sterile water and keep at −80 °C until further use. […] Cell viability was determined by the MTT colorimetric method. The optical density of each well was measured at 550 nm in a […] Accureader M965 microplate reader. […] All data were expressed as a percentage of non-Aβ1–42-treated groups (control group). Cell viability of the control group was expressed as 100%. […]
Aβ has been implicated in the pathogenesis of AD. […] Therefore, the neuroprotective effect against Aβ1–42 toxicity of phellopterin was also determined in SH-SY5Y cells. Aβ1–42 at concentration 25 µM was treated with cells in the presence or absence of phellopterin at a concentration 0.1 to 10 µM for 24 h, and then the cell viability was determined by MTT assay. […]

SH-SY5Y cells [4] = assay: Cytotoxicity in SH-SY5Y cells (MTT); type: cell-based; details: 0.1 to 10 µM for 24 h
Procedure: as §1
For cytotoxicity evaluation, the cells were treated with potential coumarin derivatives in various concentrations for 24 h. After that, cell viability was determined by staining the cells with 3-(4, 5-dimethyl-2-thiazolyl)-2, 5-diphenyl-2H-tetrazolium bromide, and MTT (5 mg/mL in PBS) for 2 h. The optical density of each well was measured at 550 nm in a […] Accureader M965 microplate reader.

SH-SY5Y cells [5] = assay: Neuroprotection against H2O2-induced cell damage (MTT); type: cell-based, Human; details: pre-incubation with 10 µM for 24 h, then 100 µM H2O2 for 2 h, compared to H2O2 treated group
Procedure: as §1
For neuroprotection against H2O2 investigation, the cells were pretreated with coumarin in various concentrations for 24 h. After removing unabsorbed test compounds by washing with phosphate buffer saline, the cells were treated with 100 µM H2O2 for 2 h to induce oxidative stress. Cell viability was determined by the MTT colorimetric method. The optical density of each well was measured at 550 nm. […] All data were expressed as a percentage of non-H2O2-treated groups (control group). The cell viability of the control group was expressed as 100%. The experiment was done in independent triplicates (4 wells/group).
The neuroprotective effect of phellopterin against oxidative stress was determined by colorimetric MTT assay in SH-SY5Y cells. Hydrogen peroxide at concentration 100 µM was used to induce oxidative damage. SH-SY5Y cells were pretreated with phellopterin at a concentration of 0.1 to 10 µM for 24 h prior to exposure to H2O2 for 2 h.

[6] = Ellman method, 0.2 Units/mL AChE, pH 7.4, mean ± SD, read-out: AChE assay IC50

T1 sequence (O42275 24-633): as the sequence (O42275 24-633) above

Row | Structure (SMILES) | IC50 [1, 6] [µM] | IC50 [2] [µM] | IC50 (Aβ1–42) [µM] | inhibitory effect on AChE-induced Aβ1–42 aggregation (in words) [2] | IC50 [1] [µM] | effect on Aβ1–42-induced cell damage (cell viability) (SH-SY5Y cells [3]) | viability of SH-SY5Y cells (cytotoxicity) (SH-SY5Y cells [4]) | effect on H2O2-induced cell damage (cell viability) (SH-SY5Y cells [5])
1 | COc1cc2oc(=O)ccc2c(OC)c1CC=C(C)C [Toddaculin, toddaculin] | 53 ± 9 | 232 ± 10 | 143 ± 4 |  |  |  |  | 
2 | COC1=CC(=O)c2cc(C)cc(-c3c(OC)cc(OC)c4ccc(=O)oc34)c2C1=O [Toddacoumaquinone, toddacoumaquinone] | 46 ± 12 | 72 ± 5 | 145 ± 2 |  |  |  |  | 
3 | COc1cc2oc(=O)ccc2c(OC)c1CC(=O)C(C)C [Toddanone, toddanone] | 46 ± 3 | 110 ± 2 | 76 ± 1 |  |  |  |  | 
4 | COc1cc2oc(=O)ccc2c(OC)c1O [Fraxinol, fraxinol] | 18 ± 7 | > 500 | 209 ± 21 | did not have inhibitory effects |  |  |  | 
5 | COc1cc(OC)c2ccc(=O)oc2c1/C=C/C(C)=O [Toddalenone, toddalenone] | 40 ± 4 | 211 ± 29 | 99 ± 1 |  |  |  |  | 
6 | COc1cc2oc(=O)ccc2c(OC)c1C[C@@H](O)C(C)(C)O [Toddalolactone, toddalolactone] | 49 ± 5 | 105 ± 9 | 220 ± 1 |  |  |  |  | 
7 | COc1c2ccoc2c(OC)c2oc(=O)ccc12 [Isopimpinellin, isopimpinellin] |  | > 500 | 125 ± 13 | did not have inhibitory effects | 41 ± 1 |  |  | 
8 | COc1c2ccoc2c(OCC=C(C)C)c2oc(=O)ccc12 [Phellopterin, phellopterin] | 38 ± 3 | 97 ± 7 | 95 ± 3 |  |  | significantly increase cell viability | no significant change | significantly attenuated the H2O2-induced cell damage
9 | COc1cc(OC)c2ccc(=O)oc2c1OCC=C(C)C [Artanin, artanin] | 51 ± 2 | 98 ± 19 | 124 ± 10 |  |  |  |  | 

Reference: article PMC7277748 (Biomedicines, 2020)
